In PMC12689286, “Enhanced therapeutics of cabazitaxel via polycarboxylate conjugation: improved solubility, safety, and antitumor efficacy” (Frontiers in Immunology, 2025):

Target: T1, tubulin (Sus scrofa, UniProt P02554)
T1 construct: purchased Cytoskeleton BK006P
Assay: Purified tubulin polymerization
Assay type: biochemical
Details: purified tubulin 3 mg/ml, 37°C
Procedure: A tubulin polymerization assay kit (Cytoskeleton, BK006P) was used. Briefly, 10 μl of CTXs with a concentration of 100 μM in the general tubulin buffer and 100 μl of tubulin (3 mg/ml) in TP buffer were added on ice. The 96-well plate was immediately placed in a microplate reader at 37°C.

T1 sequence (P02554 whole entry): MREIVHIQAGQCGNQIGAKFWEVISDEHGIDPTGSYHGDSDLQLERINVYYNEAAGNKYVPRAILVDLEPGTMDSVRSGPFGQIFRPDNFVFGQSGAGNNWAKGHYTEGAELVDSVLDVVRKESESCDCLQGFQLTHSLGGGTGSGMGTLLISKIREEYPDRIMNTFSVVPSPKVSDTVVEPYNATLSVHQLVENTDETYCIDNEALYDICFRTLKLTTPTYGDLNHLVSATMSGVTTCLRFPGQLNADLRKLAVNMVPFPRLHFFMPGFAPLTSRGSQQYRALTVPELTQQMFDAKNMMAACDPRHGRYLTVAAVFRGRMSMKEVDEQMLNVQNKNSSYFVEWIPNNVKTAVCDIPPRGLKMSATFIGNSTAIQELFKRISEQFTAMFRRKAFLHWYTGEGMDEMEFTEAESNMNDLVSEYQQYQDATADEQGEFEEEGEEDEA
T1 sequence (P02550 whole entry partner): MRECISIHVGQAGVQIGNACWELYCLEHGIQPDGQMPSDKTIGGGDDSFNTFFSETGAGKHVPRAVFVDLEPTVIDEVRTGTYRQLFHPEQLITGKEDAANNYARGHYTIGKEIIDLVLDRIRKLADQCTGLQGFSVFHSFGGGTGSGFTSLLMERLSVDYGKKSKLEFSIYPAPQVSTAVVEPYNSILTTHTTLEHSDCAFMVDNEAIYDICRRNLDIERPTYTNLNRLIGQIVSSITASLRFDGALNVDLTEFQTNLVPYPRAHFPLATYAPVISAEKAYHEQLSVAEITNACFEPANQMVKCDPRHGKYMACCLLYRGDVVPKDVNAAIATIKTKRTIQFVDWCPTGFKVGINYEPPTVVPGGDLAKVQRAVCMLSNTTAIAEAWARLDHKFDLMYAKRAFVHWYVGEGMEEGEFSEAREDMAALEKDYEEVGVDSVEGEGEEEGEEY

With `COC1C(=O)C2(C)C(OC)CC3OCC3(OC(C)=O)C2C(OC(=O)c2ccccc2)C2(O)CC(OC(=O)C(OC(=O)CN(CCN(CCN(CC(=O)O)CC(=O)O)CC(=O)O)CC(=O)O)C(NC(=O)OC(C)(C)C)c3ccccc3)C(C)=C1C2(C)C` (stereo not shown) [CTX-DTPA] the polymerization kinetics was 43.7 ± 8.0 mOD/min.
